Measured values taken from PubChem BioAssay (NCI).
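Five compound concentrations were applied to cells in 96-well plates for 48 hours; endpoints were derived by simple linear interpolation of the resulting dose-response curve. TGI denotes the concentration required for complete inhibition of growth.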

Legend:
Assay in all cases: inhibition of tumour cell growth, NCI panel, 48 h
786-0 renal = test system: 786-0 renal
A498 renal = test system: A498 renal
A549 NSCLC = test system: A549 NSCLC
ACHN renal = test system: ACHN renal
BT-549 breast = test system: BT-549 breast
CAKI-1 renal = test system: CAKI-1 renal
CCRF-CEM leukemia = test system: CCRF-CEM leukemia
COLO 205 colon = test system: COLO 205 colon
DU-145 prostate = test system: DU-145 prostate
EKVX NSCLC = test system: EKVX NSCLC
HCC-2998 colon = test system: HCC-2998 colon
HCT-116 colon = test system: HCT-116 colon
HCT-15 colon = test system: HCT-15 colon
HL-60(TB) leukemia = test system: HL-60(TB) leukemia
HOP-62 NSCLC = test system: HOP-62 NSCLC
HOP-92 NSCLC = test system: HOP-92 NSCLC
HS 578T breast = test system: HS 578T breast
HT29 colon = test system: HT29 colon
IGROV1 ovarian = test system: IGROV1 ovarian
K-562 leukemia = test system: K-562 leukemia
KM12 colon = test system: KM12 colon
LOX IMVI melanoma = test system: LOX IMVI melanoma
M14 melanoma = test system: M14 melanoma
MALME-3M melanoma = test system: MALME-3M melanoma
MCF7 breast = test system: MCF7 breast
MDA-MB-231 breast = test system: MDA-MB-231 breast
MDA-MB-435 = test system: MDA-MB-435
MDA-N = test system: MDA-N
MOLT-4 leukemia = test system: MOLT-4 leukemia
NCI-H23 lung = test system: NCI-H23 lung
NCI-H460 lung = test system: NCI-H460 lung
NCI-H522 lung = test system: NCI-H522 lung
NCI/ADR-RES ovarian = test system: NCI/ADR-RES ovarian
OVCAR-3 ovarian = test system: OVCAR-3 ovarian
OVCAR-5 ovarian = test system: OVCAR-5 ovarian
OVCAR-8 ovarian = test system: OVCAR-8 ovarian
PC-3 prostate = test system: PC-3 prostate
RPMI-8226 leukemia = test system: RPMI-8226 leukemia
RXF 393 renal = test system: RXF 393 renal
SF-268 CNS = test system: SF-268 CNS
SF-295 CNS = test system: SF-295 CNS
SF-539 CNS = test system: SF-539 CNS
SK-MEL-2 melanoma = test system: SK-MEL-2 melanoma
SK-MEL-28 melanoma = test system: SK-MEL-28 melanoma
SK-MEL-5 melanoma = test system: SK-MEL-5 melanoma
SK-OV-3 ovarian = test system: SK-OV-3 ovarian
SN12C renal = test system: SN12C renal
SNB-19 CNS = test system: SNB-19 CNS
SNB-75 CNS = test system: SNB-75 CNS
SR leukemia = test system: SR leukemia
SW-620 colon = test system: SW-620 colon
T-47D breast = test system: T-47D breast
TK-10 renal = test system: TK-10 renal
U251 CNS = test system: U251 CNS
UACC-257 melanoma = test system: UACC-257 melanoma
UACC-62 melanoma = test system: UACC-62 melanoma
UO-31 renal = test system: UO-31 renal
NCI-H226 lung = test system: NCI-H226 lung
OVCAR-4 ovarian = test system: OVCAR-4 ovarian

`COc1cc2c(cc1C)NC(=O)/C2=C/c1c(Cl)n(-c2ccccc2)c2ccccc12` showed a TGI (786-0 renal) of 43.3 µM, a TGI (A498 renal) greater than 100 µM and a TGI (A549 NSCLC) greater than 100 µM. The TGI (ACHN renal) was greater than 100 µM, the TGI (BT-549 breast) was 66.5 µM and the TGI (CAKI-1 renal) was greater than 100 µM. For the same molecule, the TGI (CCRF-CEM leukemia) was 30.8 µM, the TGI (COLO 205 colon) was 18.5 µM and the TGI (DU-145 prostate) was greater than 100 µM. For the same molecule, the TGI (EKVX NSCLC) was greater than 100 µM, the TGI (HCC-2998 colon) was 24.2 µM and the TGI (HCT-116 colon) was 61.1 µM. The TGI (HCT-15 colon) was 67.3 µM, the TGI (HL-60(TB) leukemia) was 22 µM and the TGI (HOP-62 NSCLC) was 63.7 µM. It also gave a TGI (HOP-92 NSCLC) greater than 100 µM, a TGI (HS 578T breast) greater than 100 µM and a TGI (HT29 colon) greater than 100 µM. The TGI (IGROV1 ovarian) was greater than 100 µM, the TGI (K-562 leukemia) was greater than 100 µM and the TGI (KM12 colon) was greater than 100 µM. For the same molecule, the TGI (LOX IMVI melanoma) was 27.8 µM, the TGI (M14 melanoma) was 63.1 µM and the TGI (MALME-3M melanoma) was 37.2 µM. For the same molecule, the TGI (MCF7 breast) was greater than 100 µM, the TGI (MDA-MB-231 breast) was greater than 100 µM and the TGI (MDA-MB-435) was 45.5 µM. It also gave a TGI (MDA-N) of 37 µM, a TGI (MOLT-4 leukemia) of 33.8 µM and a TGI (NCI-H23 lung) of 81.8 µM. The TGI (NCI-H460 lung) was 30.4 µM, the TGI (NCI-H522 lung) was 32.2 µM and the TGI (NCI/ADR-RES ovarian) was 67.7 µM. It also gave a TGI (OVCAR-3 ovarian) of 28 µM, a TGI (OVCAR-5 ovarian) greater than 100 µM and a TGI (OVCAR-8 ovarian) greater than 100 µM. The TGI (PC-3 prostate) was greater than 100 µM, the TGI (RPMI-8226 leukemia) was 52.8 µM and the TGI (RXF 393 renal) was 38.5 µM. For the same molecule, the TGI (SF-268 CNS) was greater than 100 µM, the TGI (SF-295 CNS) was 49 µM and the TGI (SF-539 CNS) was 24.3 µM. For the same molecule, the TGI (SK-MEL-2 melanoma) was 36 µM, the TGI (SK-MEL-28 melanoma) was greater than 100 µM and the TGI (SK-MEL-5 melanoma) was 22.3 µM. The TGI (SK-OV-3 ovarian) was 69.7 µM, the TGI (SN12C renal) was 23.6 µM and the TGI (SNB-19 CNS) was greater than 100 µM. The TGI (SNB-75 CNS) was greater than 100 µM, the TGI (SR leukemia) was 32.9 µM and the TGI (SW-620 colon) was 38.7 µM. The TGI (T-47D breast) was 40.4 µM, the TGI (TK-10 renal) was greater than 100 µM and the TGI (U251 CNS) was 64.3 µM. For the same molecule, the TGI (UACC-257 melanoma) was 61.7 µM, the TGI (UACC-62 melanoma) was 73.5 µM and the TGI (UO-31 renal) was greater than 100 µM.

`O=C(O)c1cscc1Cc1cccs1` gave a TGI (786-0 renal) greater than 100 µM, a TGI (A498 renal) greater than 100 µM and a TGI (A549 NSCLC) greater than 100 µM. It also gave a TGI (ACHN renal) greater than 100 µM, a TGI (BT-549 breast) greater than 100 µM and a TGI (CAKI-1 renal) greater than 100 µM. For the same molecule, the TGI (CCRF-CEM leukemia) was greater than 100 µM, the TGI (COLO 205 colon) was greater than 100 µM and the TGI (DU-145 prostate) was greater than 100 µM. The TGI (EKVX NSCLC) was greater than 100 µM, the TGI (HCT-116 colon) was greater than 100 µM and the TGI (HCT-15 colon) was greater than 100 µM. For the same molecule, the TGI (HL-60(TB) leukemia) was greater than 100 µM, the TGI (HOP-62 NSCLC) was greater than 100 µM and the TGI (HOP-92 NSCLC) was greater than 100 µM. For the same molecule, the TGI (HS 578T breast) was greater than 100 µM, the TGI (HT29 colon) was greater than 100 µM and the TGI (IGROV1 ovarian) was greater than 100 µM. The TGI (K-562 leukemia) was greater than 100 µM, the TGI (KM12 colon) was greater than 100 µM and the TGI (LOX IMVI melanoma) was greater than 100 µM. The TGI (M14 melanoma) was greater than 100 µM, the TGI (MALME-3M melanoma) was greater than 100 µM and the TGI (MCF7 breast) was greater than 100 µM. It also gave a TGI (MDA-MB-231 breast) greater than 100 µM, a TGI (MDA-MB-435) greater than 100 µM and a TGI (MDA-N) greater than 100 µM. The TGI (MOLT-4 leukemia) was greater than 100 µM, the TGI (NCI-H226 lung) was greater than 100 µM and the TGI (NCI-H23 lung) was greater than 100 µM. The TGI (NCI-H460 lung) was greater than 100 µM, the TGI (NCI-H522 lung) was greater than 100 µM and the TGI (NCI/ADR-RES ovarian) was greater than 100 µM. For the same molecule, the TGI (OVCAR-3 ovarian) was greater than 100 µM, the TGI (OVCAR-4 ovarian) was greater than 100 µM and the TGI (OVCAR-5 ovarian) was greater than 100 µM. The TGI (OVCAR-8 ovarian) was greater than 100 µM, the TGI (PC-3 prostate) was greater than 100 µM and the TGI (RPMI-8226 leukemia) was greater than 100 µM. It also gave a TGI (RXF 393 renal) greater than 100 µM, a TGI (SF-268 CNS) greater than 100 µM and a TGI (SF-295 CNS) greater than 100 µM. The TGI (SF-539 CNS) was greater than 100 µM, the TGI (SK-MEL-2 melanoma) was greater than 100 µM and the TGI (SK-MEL-28 melanoma) was greater than 100 µM. The TGI (SK-MEL-5 melanoma) was greater than 100 µM, the TGI (SK-OV-3 ovarian) was greater than 100 µM and the TGI (SN12C renal) was greater than 100 µM. The TGI (SNB-19 CNS) was greater than 100 µM, the TGI (SNB-75 CNS) was greater than 100 µM and the TGI (SR leukemia) was greater than 100 µM. It also gave a TGI (SW-620 colon) greater than 100 µM, a TGI (T-47D breast) greater than 100 µM and a TGI (TK-10 renal) greater than 100 µM. The TGI (U251 CNS) was greater than 100 µM, the TGI (UACC-257 melanoma) was greater than 100 µM and the TGI (UACC-62 melanoma) was greater than 100 µM.
